From EP1260509A1, “Uses of tocopherol esters” (Derma Developpement S.A.R.L., priority 2001, dated 2002)

What was measured:
[1] = system: fibroblastes de derme humain; experiment: Mitochondrial activity of human dermal fibroblasts (rhodamine 123 fluorescence, semi-quantitative score); assay type: cell-based; conditions: antimycine 0,5 µM (positive control), 72 h
Experimental: Les fibroblastes de derme humain sont ensemencées à la densité de 5000 cellules/cm^2 dans 500 µl de milieu IMDM supplémenté par du SVF 10% pendant 24 heures en atmosphère humide contenant 5% (v/v) de CO2
Après 24 heures, les cellules sont mises en contact avec les différentes concentrations d'un ester de tocophéryle avec un acide gras mono ou polyinsaturé ( 10, 50 et 100 µg/ml).
Une série « témoin positif» est constituée de cellules traitées à l'antimycine à 0,5 µM.
Principe : L'incorporation cellulaire de rhodamine 123 est la conséquence de la variation du potentiel transmembranaire mitochondrial. L'évaluation semi-quantitative de la respiration mitochondriale est basée sur l'intensité de la fluorescence à l'intérieur de la cellule.
Les cellules sont incubées pendant 72 heures à 37°C en atmosphère humide contenant 5% (v/v) de CO2. A la fin de la période d'incubation, le milieu de culture est prélevé et la couche cellulaire rincée deux fois avec du milieu IMDM puis mise dans 500 µl de tampon phosphate pH 7.2 contenant 0.1 mg/ml de rhodamine 123.
On laisse incuber pendant 15 minutes à 37 °C, puis on mesure la fluorescence de façon semi-quantitative à l'aide d'une échelle de cotation.
Echelle de cotation (Intensité de fluorescence) : 0 : cytoplasme non fluorescent, 1 : faible; 2 : moyennement intense; 3 : Importante; 4 : Très importante, tout le cytoplasme est fluorescent.

tyrosine kinase = molecular target: T1, tyrosine kinase (Homo sapiens, UniProt P14679); experiment: Tyrosine kinase (tyrosinase) activity in human melanocytes, L-Dopamine substrate, absorbance at 475 nm; assay type: cell-based, humains; conditions: hydroquinone 1 µg/mL (positive control), 72 h; témoin 0.044 ± 0.002
T1 construct: endogenous in cells; host or cells: human melanocytes (cultured)
Experimental: Les mélanocytes humains sont ensemencés à la densité de 50 000 cellules/cm^2 dans des plaques multipuits. Les cellules sont incubées à 37°C en atmosphère humide contenant 5% (v/v) de CO2. Le milieu de culture est le MCDB 153 supplémenté par l'EGF (5 ng/mL) (Sigma), l'insuline (5 µg/mL)(Sigma), l'hydrocortisone (5 ng/mL)(Sigma),du sérum de veau foetal (SVF) à 5 % (v/v)( Gibco). Le milieu de culture est remplacé après 24 heures de culture et supplémenté par des antibiotiques (Peni-Strepto)(Gibco) à 1% (V/v) contenant les différentes concentrations d'un ester de tocophéryle avec un acide gras mono ou polyinsaturé ( 1, 10 et 100 µg/mL).
Une série « témoin positif» est constituée de cellules traitées à l'hydroquinone à 1 µg/mL.
Les cellules sont incubées pendant 72 heures à 37°C en atmosphère humide contenant 5% (v/v) de CO2. A la fin de la période d'incubation, le milieu de culture est prélevé et la couche cellulaire rincée deux fois avec du PBS. 450 µL de Triton X100 à 1% (v/v) dans le PBS sont ajouté dans chaque puits. On agite pendant 10 minutes puis on ajoute 50 µL de L-Dopamine à 10 mM dans du PBS sans Ca^++ ni Mg ^++
On laisse incuber pendant 1 heure à 37°C à l'abri de la lumière, puis on mesure l'absorption à 475 nm au spectrophotomètre. Tableau 1

T1 sequence (P14679 19-529): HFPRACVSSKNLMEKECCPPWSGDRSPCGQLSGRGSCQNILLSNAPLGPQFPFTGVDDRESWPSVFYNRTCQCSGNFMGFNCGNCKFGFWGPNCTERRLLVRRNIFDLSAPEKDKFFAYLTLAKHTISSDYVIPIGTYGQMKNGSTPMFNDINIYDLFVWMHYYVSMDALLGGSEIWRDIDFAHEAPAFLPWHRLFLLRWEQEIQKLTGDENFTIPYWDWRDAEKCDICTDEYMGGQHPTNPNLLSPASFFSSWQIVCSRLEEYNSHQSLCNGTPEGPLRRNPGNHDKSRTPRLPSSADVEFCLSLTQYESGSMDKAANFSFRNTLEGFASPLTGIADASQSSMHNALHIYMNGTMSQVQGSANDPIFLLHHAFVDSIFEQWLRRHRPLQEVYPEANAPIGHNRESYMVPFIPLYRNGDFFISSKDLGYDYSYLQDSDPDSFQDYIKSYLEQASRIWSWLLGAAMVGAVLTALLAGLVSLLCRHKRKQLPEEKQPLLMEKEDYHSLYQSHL

Row | Compound | cellules, intensité de fluorescence 4 : Très importante, tout le cytoplasme est fluorescent ([1]; témoin 12,3 ± 2,1) | cellules, intensité de fluorescence 0 : cytoplasme non fluorescent ([1]; témoin 17,7 ± 2,1) | cellules, intensité de fluorescence 1 : faible ([1]; témoin 21,0 ± 2,9) | cellules, intensité de fluorescence 2 : moyennement intense ([1]; témoin 25,0 ± 2,4) | cellules, intensité de fluorescence 3 : Importante ([1]; témoin 25,7 ± 3,1) | moyenne absorbance à 475 nm (tyrosine kinase)
1 | antimycine | 10,7 ± 2,5 | 25,0 ± 4,1 | 16,3 ± 1,9 | 20,0 ± 1,6 | 13,3 ± 2,4 | –
2 | Oc1ccc(O)cc1 [hydroquinone] | – | – | – | – | – | 0.024 ± 0.001
